Data set [1] has as its system subunit I of Complex IV (COX-I). Briefly: Mitobiogenesis In-Cell ELISA, COX-I levels in H9c2 cells. The format is cell-based, Rat. To be noted: H9c2 heart muscle cells, 24 hours treatment; FIG. 7.
Experimental: (§1) Mitobiogenesis: MitoBiogenesis™ In-Cell ELISA Kit (Colorimetric) was purchased from Abcam (Cambridge, UK). H9c2 Cells were grown to confluency in 96 well plates and treated with test ingredients for 24 hours at 37° C. Media was removed and cells were washed with Phosphate Buffered Saline provided in the kit. The cells were then fixed and processed as per the protocol provided with the kit. This assay was used to quantify two mitochondrial proteins: subunit I of Complex IV (COX-I) and the 70 kDa subunit of Complex II (SDH-A). No treatment control was used to show relative protein levels in each case.
Data set [2] has as its system Microglial Cells (IMG) exposed to Hydrogen Peroxide. Briefly: Cell Protection from Oxidative Stress (Alamar Blue viability). The format is cell-based, mice. To be noted: IMG cells pretreated 24 hours, H2O2 1 hour, 24 hours recovery; FIG. 8. From the text: Cell Lines: Rat Cardiomyoblasts (H9c2) were obtained from ATCC (Virginia, USA). […] Cells were maintained in Dulbecco's Modified Eagle's Medium (DMEM) from Thermofisher (MA, USA) supplemented with 10% Fetal Bovine Serum (FBS) from Thermofisher (MA, USA) and 1% Penicillin-Streptomycin (PS) from MilliporeSigma (MA, USA). Microglial Cells (IMG) were obtained from Kerafast (MA, USA). It is an immortalized microglial cell line isolated from the brains of adult mice. Cells were maintained in DMEM supplemented with 10% FBS and 1% PS.
Cell Protection from Oxidative Stress: IMG cells were grown to confluency and pretreated with test compounds for 24 hours at 37° C. Media was removed and cells were exposed to Hydrogen Peroxide for 1 hour at 37° C. After one hour, H2O2 was removed and cells were incubated in DMEM supplemented with 1% BSA for a further 24 hours at 37° C. to allow them to stabilize. Subsequently, cell viability was assessed using Alamar Blue Cell Viability Reagent from Thermofisher (MA, USA). Alamar Blue Reagent is an oxidized form of redox indicator that is blue in color. When incubated with viable cells, the reagent changes color from blue to red and can be measured by absorbance at 570 nm.
We tested protective effects of individual natural compounds and their combinations in microglial cells exposed to oxidative stress generated by hydrogen peroxide.
(Alamar Blue is a resazurin reagent that responds to reducing activity.)

In data set [3] the test system is Succinate Dehydrogenase (SDH) subunit A. Briefly: Mitobiogenesis In-Cell ELISA, SDH-A levels in H9c2 cells. The format is cell-based, Rat. As to conditions: H9c2 cardiac muscle cells, 24 hours treatment; FIG. 6. On the technique in general: In an ELISA, binding on a coated surface is turned into a signal by an enzyme label.
Experimental: as §1

The record followed here is patent publication US20250009692A1, “Micronutrient composition to prevent and reverse protein glycation during oxidative stress in human” (priority 2023, published 2025).

Take `N[C@@H](CS)C(=O)O` [cysteine, L Cysteine]: the “increase of Cox-1 levels compared to control” value in data set [1] stood at 41%. On to `O=C([O-])CC(O)C(=O)[O-].[Mg+2]` (stereo not drawn) [magnesium malate, Magnesium Malate], for which, in data set [2], the “survival of cells exposed to hydrogen peroxide (viable cells)” value (shortened to “survival of cells exposed”) was “about 50%”. In data set [3], the “increase of SDH levels compared to control” value was 86%. As to `CSCC[C@H](N)C(=O)O` [methionine, Methionine], the “survival of cells exposed” value in data set [2] was “about 50%”. With `CC(=O)C(=O)[O-].[Na+]` [sodium pyruvate, Sodium Pyruvate], the “increase of SDH levels compared to control” value in data set [3] was found to be 54%. For Magnesium Citrate, the “survival of cells exposed” value in data set [2] is on record as “about 50%”.
